Test results as given in ChEMBL document CHEMBL5257052, “Aromatic Polyketides from the Mangrove-Derived Streptomyces sp. SCSIO 40069” (2023).
Values after ≈ are worked out from the molar mass of the structure shown.

What was measured:
Format in all cases: functional
Staphylococcus aureus = assay: Antibacterial activity against Staphylococcus aureus ATCC 29213 measured after 16 hrs by broth microdilution method
Acinetobacter baumannii = assay: Antibacterial activity against Acinetobacter baumannii ATCC 19606 measured after 16 hrs by broth microdilution method
Vibrio alginolyticus = assay: Antibacterial activity against Vibrio alginolyticus 13214 measured after 16 hrs by broth microdilution method
Micrococcus luteus = assay: Antibacterial activity against Micrococcus luteus SCSIO ML01 measured after 16 hrs by broth microdilution method
Klebsiella pneumoniae = assay: Antibacterial activity against Klebsiella pneumoniae ATCC 13883 measured after 16 hrs by broth microdilution method

Row | SMILES | MIC (Staphylococcus aureus) | MIC (Acinetobacter baumannii) | MIC (Vibrio alginolyticus) | MIC (Micrococcus luteus) | MIC (Klebsiella pneumoniae)
1 | CC(=O)c1c(O)cc2c3c(cccc13)C=C([C@H](O)[C@H](C)O)O2 | > 64 µg/mL | > 64 µg/mL | > 64 µg/mL | > 64 µg/mL | > 64 µg/mL
2 | COc1cc(Cc2cnc(N)nc2N)cc(OC)c1OC [TRIMETHOPRIM] | 2 µg/mL (≈ 6.89 µM) | 0.125 µg/mL (≈ 0.431 µM) | 0.125 µg/mL (≈ 0.431 µM) | 2 µg/mL (≈ 6.89 µM) | 0.125 µg/mL (≈ 0.431 µM)
3 | CC(=O)c1c(O)cc2c3c(cccc13)C=C(CO)O2 | 8 µg/mL (≈ 31.2 µM) | 64 µg/mL (≈ 250 µM) | > 64 µg/mL | 8 µg/mL (≈ 31.2 µM) | 64 µg/mL (≈ 250 µM)
4 | CC(=O)c1c(O)cc2c3c(cccc13)C=C(C=O)O2 | > 64 µg/mL | > 64 µg/mL | 32 µg/mL (≈ 126 µM) | 32 µg/mL (≈ 126 µM) | 32 µg/mL (≈ 126 µM)
5 | CC(=O)c1c(O)cc2c3c(cccc13)C=C([C@@H](O)[C@@H](C)O)O2 | > 64 µg/mL | > 64 µg/mL | > 64 µg/mL | > 64 µg/mL | > 64 µg/mL
6 | CC(=O)c1c(O)cc2c3c(cccc13)C=C([C@H](O)[C@@H](C)O)O2 | > 64 µg/mL | 32 µg/mL (≈ 107 µM) | 64 µg/mL (≈ 213 µM) | > 64 µg/mL | 16 µg/mL (≈ 53.3 µM)

The next lines start with the values.

Row | MIC (Staphylococcus aureus) | MIC (Acinetobacter baumannii) | MIC (Vibrio alginolyticus) | MIC (Micrococcus luteus) | MIC (Klebsiella pneumoniae) | SMILES
7 | 8 µg/mL (≈ 28.3 µM) | > 64 µg/mL | 32 µg/mL (≈ 113 µM) | 8 µg/mL (≈ 28.3 µM) | 8 µg/mL (≈ 28.3 µM) | CC(=O)CC1=Cc2cccc3c(C(C)=O)c(O)cc(c23)O1
8 | > 64 µg/mL | > 64 µg/mL | 64 µg/mL (≈ 266 µM) | 64 µg/mL (≈ 266 µM) | > 64 µg/mL | CC(=O)c1c(O)cc2c3c(cccc13)C=C(C)O2
9 | > 64 µg/mL | > 64 µg/mL | > 64 µg/mL | > 64 µg/mL | > 64 µg/mL | CC(=O)c1c(O)cc2c3c(cccc13)C=C([C@@H](O)[C@H](C)O)O2
